Nine compounds from PubChem BioAssay AID1259407 (Chemical Carcinogenesis Research Information System (CCRIS), 2018) can be followed below.

Calls of active or inactive are those of the source. The rule behind the calls is not given here.

In the data set the test system is CCRIS mutagenicity, Ames/micronucleus/aberration tests. Put plainly: CCRIS mutagenicity studies. The following applies: Test System: AMES SALMONELLA TYPHIMURIUM
Setting [1] is: Strain/Indicator: TA98, Metabolic Activation: NONE, Method: STANDARD PLATE.
Where [2] appears, read: Strain/Indicator: TA100, Metabolic Activation: NONE, Method: STANDARD PLATE.
The mark [3] stands for this setting: Strain/Indicator: TA98, Metabolic Activation: RAT, LIVER, S-9, AROCLOR 1254, Method: STANDARD PLATE.
The mark [4] stands for this setting: Strain/Indicator: TA98, Metabolic Activation: HAMSTER, LIVER, S-9, AROCLOR 1254 (30%), Method: PREINCUBATION
[5] abbreviates: Strain/Indicator: TA98, Metabolic Activation: NONE, Method: PREINCUBATION
[6] abbreviates: Strain/Indicator: TA98, Metabolic Activation: RAT, LIVER, S-9, AROCLOR 1254 (30%), Method: PREINCUBATION
The mark [7] stands for this setting: Strain/Indicator: TA100, Metabolic Activation: HAMSTER, LIVER, S-9, AROCLOR 1254 (30%), Method: PREINCUBATION
Where [8] appears, read: Strain/Indicator: TA100, Metabolic Activation: NONE, Method: PREINCUBATION
Where [9] appears, read: Strain/Indicator: TA100, Metabolic Activation: RAT, LIVER, S-9, AROCLOR 1254 (30%), Method: PREINCUBATION
Where [10] appears, read: Strain/Indicator: TA100, Metabolic Activation: RAT, LIVER, S-9, AROCLOR 1254, Method: STANDARD PLATE.
Where [11] appears, read: Strain/Indicator: TA1537, Metabolic Activation: NONE, Method: STANDARD PLATE.
The mark [12] stands for this setting: Strain/Indicator: TA1537, Metabolic Activation: RAT, LIVER, S-9, AROCLOR 1254, Method: STANDARD PLATE.

In the case of `Cc1ccc2c(ccc3ccccc32)c1`, the mutagenic call runs as follows: (Strain/Indicator: TA97, Metabolic Activation: NONE, Method: STANDARD PLATE) “inactive; negative”; (Strain/Indicator: TA97, Metabolic Activation: RAT, LIVER, S-9, PCB, Method: STANDARD PLATE) “active; positive”; under setting [1], “inactive; negative”; (Strain/Indicator: TA98, Metabolic Activation: RAT, LIVER, S-9, PCB, Method: STANDARD PLATE) “active; positive”; under setting [2], “inactive; negative”; (Strain/Indicator: TA100, Metabolic Activation: RAT, LIVER, S-9, PCB, Method: STANDARD PLATE) “active; positive”.

Turning to `O=[N+]([O-])c1ccc2cc3c(cc2c1)C=C[C@@H](O)[C@@H]3O`, the mutagenic call reads like this: under setting [1], “active; positive”; under setting [3], “active; positive”.

In the case of `c1ccc2cc3c(cc2c1)-c1cccc2cccc-3c12`, the mutagenic call by setting is: under setting [4], “active; positive”; under setting [5], “inactive; negative”; under setting [6], “active; positive”; under setting [7], “active; positive”; under setting [8], “inactive; negative”; (Strain/Indicator: TA100, Metabolic Activation: RAT, LIVER, S-9, AROCLOR 1254) “active; positive”. For the same compound, the mutagenic call by setting is: under setting [9], “active; positive”; under setting [10], “active; positive”.

Turning to `CCCCCCCCOc1ccc(C(=O)O)cc1`, the mutagenic call was “inactive; negative” (Strain/Indicator: TA97, Metabolic Activation: HAMSTER, LIVER, S-9, AROCLOR 1254 (10%), Method: PREINCUBATION); “inactive; negative” (Strain/Indicator: TA97, Metabolic Activation: HAMSTER, LIVER, S-9, AROCLOR 1254 (30%), Method: PREINCUBATION); “inactive; negative” (Strain/Indicator: TA97, Metabolic Activation: NONE, Method: PREINCUBATION); “inactive; negative” (Strain/Indicator: TA97, Metabolic Activation: RAT, LIVER, S-9, AROCLOR 1254 (10%), Method: PREINCUBATION); “inactive; negative” (Strain/Indicator: TA97, Metabolic Activation: RAT, LIVER, S-9, AROCLOR 1254 (30%), Method: PREINCUBATION); “inactive; negative” (Strain/Indicator: TA98, Metabolic Activation: HAMSTER, LIVER, S-9, AROCLOR 1254 (10%), Method: PREINCUBATION). Besides, the mutagenic call under setting [4] is “inactive; negative”; the mutagenic call under setting [5] is “inactive; negative”; the mutagenic call (Strain/Indicator: TA98, Metabolic Activation: RAT, LIVER, S-9, AROCLOR 1254 (10%), Method: PREINCUBATION) is “inactive; negative”; the mutagenic call under setting [6] is “inactive; negative”; the mutagenic call (Strain/Indicator: TA100, Metabolic Activation: HAMSTER, LIVER, S-9, AROCLOR 1254 (10%), Method: PREINCUBATION) was “inactive; negative”; the mutagenic call under setting [7] is “inactive; negative”. Also, the mutagenic call runs as follows: under setting [8], “inactive; negative”; (Strain/Indicator: TA100, Metabolic Activation: RAT, LIVER, S-9, AROCLOR 1254 (10%), Method: PREINCUBATION) “inactive; negative”; under setting [9], “inactive; negative”; (Strain/Indicator: TA1535, Metabolic Activation: HAMSTER, LIVER, S-9, AROCLOR 1254 (10%), Method: PREINCUBATION) “inactive; negative”; (Strain/Indicator: TA1535, Metabolic Activation: HAMSTER, LIVER, S-9, AROCLOR 1254 (30%), Method: PREINCUBATION) “inactive; negative”; (Strain/Indicator: TA1535, Metabolic Activation: NONE, Method: PREINCUBATION) “inactive; negative”. For the same compound, the mutagenic call reads like this: (Strain/Indicator: TA1535, Metabolic Activation: RAT, LIVER, S-9, AROCLOR 1254 (10%), Method: PREINCUBATION) “inactive; negative”; (Strain/Indicator: TA1535, Metabolic Activation: RAT, LIVER, S-9, AROCLOR 1254 (30%), Method: PREINCUBATION) “inactive; negative”.

As for `C1CCC2OCCOCCOCCOC3CCCCC3OCCOCCOCCOC2C1` (stereo not given), the mutagenic call is “inactive; negative” under setting [1]; “inactive; negative” under setting [3]; “inactive; negative” under setting [2]; “inactive; negative” under setting [10]; “inactive; negative” (Strain/Indicator: TA1530, Metabolic Activation: NONE, Method: STANDARD PLATE); “inactive; negative” (Strain/Indicator: TA1530, Metabolic Activation: RAT, LIVER, S-9, AROCLOR 1254, Method: STANDARD PLATE). In addition, the mutagenic call under setting [11] was “inactive; negative” and the mutagenic call under setting [12] was “inactive; negative”.

On to `Cc1ccc(C(=O)n2ncc(Cl)c(Cl)c2=O)cc1`, for which the mutagenic call reads like this: under setting [1], “inactive; negative”; under setting [3], “inactive; negative”; under setting [2], “inactive; negative”; under setting [10], “inactive; negative”; (Strain/Indicator: TA1535, Metabolic Activation: NONE, Method: STANDARD PLATE) “inactive; negative”; (Strain/Indicator: TA1535, Metabolic Activation: RAT, LIVER, S-9, AROCLOR 1254, Method: STANDARD PLATE) “inactive; negative”. Moreover, the mutagenic call was “inactive; negative” under setting [11] and “inactive; negative” under setting [12].

Consider `O=C(/C=C/c1ccccc1)c1ccc(-c2ccccc2)cc1`, for which the mutagenic call under setting [1] was “inactive; negative”, the mutagenic call under setting [3] was “inactive; negative”, the mutagenic call under setting [2] is “inactive; negative” and the mutagenic call under setting [10] is “inactive; negative”.

With `Cc1ccc([N+](=O)[O-])cc1C`, the mutagenic call under setting [5] was “inactive; negative”; the mutagenic call (Strain/Indicator: TA98, Metabolic Activation: RAT, LIVER, S-9, KANECHLOR 500, Method: PREINCUBATION) was “inactive; negative”; the mutagenic call under setting [8] was “inactive; negative”.

Regarding `O=C(N=c1sn(C(=O)c2ccc([N+](=O)[O-])cc2)c2ccc([N+](=O)[O-])cc12)c1ccc([N+](=O)[O-])cc1`, for the setting “Strain/Indicator: TA100, Metabolic Activation: S-9, Method: STANDARD PLATE”, the mutagenic call was “active; positive”.
